Like-named read-outs stand apart in the source and are kept apart here.

Assay [1] deals with T1, 5α-Reductase of Rat Liver Microsomes (Rattus norvegicus, UniProt P24008).
T1 sequence (P24008 1-259): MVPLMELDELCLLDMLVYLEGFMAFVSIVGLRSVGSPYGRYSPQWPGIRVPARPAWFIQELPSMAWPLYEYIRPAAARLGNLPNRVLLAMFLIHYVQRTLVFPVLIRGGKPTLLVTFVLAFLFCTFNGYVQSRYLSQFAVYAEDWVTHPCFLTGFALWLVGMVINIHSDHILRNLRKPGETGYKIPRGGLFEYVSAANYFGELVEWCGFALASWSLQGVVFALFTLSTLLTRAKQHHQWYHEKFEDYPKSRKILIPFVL
The following applies: for stimulation or inhibition of [^3 H]4-MA binding: 40 μM.
Protocol: (§1) Briefly, the binding assay solution, in a final volume of 0.15 ml, contained microsomes (2-20 μg of protein), 0.08 μCi of [^3 H]4-MA, 0.1 mM-NADPH, 1 mM-dithiothreitol and 50 mM-potassium phosphate, pH 7.0, with or without the indicated amount of a lipid or an inhibitor preparation. Lipids were dissolved in ethanol and added in 1-5 μl volumes. Control tubes received the same amount of ethanol. After incubation at 0° C. for 1 h, the [^3 H]4-MA bound to microsomes was determined by collecting microsomes on a Whatman GF/1F glass fibre filter and washing with 10 ml of 20 mM-potassium phosphate, pH 7.0, containing 0.01% CHAPS to remove unbound [^3 H]4-MA.
(§2) Microsomes were prepared at 4° C. from a buffered 0.32M-sucrose homogenate of human liver and from the livers of adult Sprague-Dawley female rats by differential centrifugation as described previously (Liang et al., 1990), and were used in the assay of 5α-reductase activity. In some experiments, microsomes were solubilized with 0.1% polyoxyethylene ether W-1 as described previously (Liang et al., 1990), except for the substitution of polyoxyethylene ether W-1 for Lubrol-WX.

The target in assay [2] is T1, 5α-Reductase of Rat Liver Microsomes. Kind of assay: biochemical. Conditions: for activation at 200 µM: 1 h, read-out: stimulation of [^3 H]4-MA binding.
Protocol: as §1, §2
The target is the same in assay [3]. Kind of assay: [3H]4-MA binding assay, rat liver microsomes (tea catechins). The following applies: for inhibition at 5 µM / inhibition at 10 µM / inhibition at 20 µM / inhibition at 40 µM / inhibition at 200 µM: read-out: % Inhibition of [^3 H]4-MA binding; for inhibitory activity: concentrations up to 200 μM. As to the method: Microsomes were prepared as described previously (Liang and Liao, 1992) from the liver of adult Sprague-Dawley female rats or Rat-1A cells expressing a specific type of human 5α-reductase. Each study was carried out in duplicate or triplicate which were usually within 10% of each other. Several studies were preformed to assure that the results shown are representative. The data presented was based on the rate of reaction.
[^3 H]4-MA binding assay were described in detail previously (Liang and Liao, 1992; Liang et al., 1983). […] The reaction was started by the addition of 25 μl of microsomes (25 μg protein). After 30-60 min incubation at 0° C., the [^3 H]4-MA bound to microsomes was collected on a Whatman GF/F glass fiber, washed and radioactivity determined (Liang and Liao, 1992).

[4] abbreviates: read-out: % Inhibition of [^3 H]4-MA binding, Table 2, 5 μM.
[5] abbreviates: read-out: % Inhibition of [^3 H]4-MA binding, Table 2, 10 μM.
[6] abbreviates: read-out: % Inhibition of [^3 H]4-MA binding, Table 2, 40 μM.
[7] abbreviates: read-out: % Inhibition of [^3 H]4-MA binding, Table 2, 200 μM.
Where [8] appears, read: read-out: % Inhibition of [^3 H]4-MA binding.

For the compound `CC1=C(/C=C/C(C)=C/C=C/C(C)=C\CO)C(C)(C)CCC1` [13-cis-retinol], in assay [1], the “inhibitory activity in [^3 H]4-MA binding assay” value is given as “slightly stimulatory” and the “stimulation or inhibition of [^3 H]4-MA binding” value (“stimulation or inhibition” for short) is on record as “no stimulation or inhibition”. Moreover, the activation at 200 µM in assay [2] worked out at 58%.

Turning to `CCCCC[C@H](O)/C=C/[C@H]1[C@H](O)CC(=O)[C@@H]1C/C=C\CCCC(=O)O` [Prostaglandin E2], the “inhibitory activity in [^3 H]4-MA binding assay” value in assay [1] is recorded as “not active”.

Regarding `CCCCC[C@H](O)/C=C/[C@@H]1[C@@H](C/C=C\CCCC(=O)O)[C@@H](O)C[C@H]1O` [Prostaglandin F2a], in assay [1], the “inhibitory activity in [^3 H]4-MA binding assay” value was “not active”.

As to `CCCCC[C@H](O)/C=C/[C@H]1[C@H](O)CC(=O)[C@@H]1CCCCCCC(=O)O` [prostaglandin E1], the “inhibitory activity in [^3 H]4-MA binding assay” value in assay [1] (0.2 mM) was “somewhat active”.

As a reminder, the inhibition is the percentage by which the read-out fell short of the control. For the compound `Oc1cc(O)c2c(c1)O[C@@H](c1cc(O)c(O)c(O)c1)[C@H](O)C2` [(-)Gallocatechin], in assay [3], the inhibition at 5 µM was under 10%, the inhibition at 10 µM was under 10%, the inhibition at 20 µM is under 10% and the inhibition at 40 µM was under 10%. Besides, the inhibition at 200 µM in assay [3] was under 10%.

As for naphthaflavone [reference compound], in assay [3], the “inhibitory activity” value is “inactive”.

`CC1=C(/C=C/C(C)=C/C=C/C(C)=C/CO)C(C)(C)CCC1` [retinol]: in assay [1], the “inhibitory activity in [^3 H]4-MA binding assay” value is “slightly stimulatory”.

What is called IC50 is the midpoint of a concentration-inhibition curve. For methyl docosatetraenoate, in assay [1], the 50% inhibitory concentration (IC50) was over 200 µM.

Turning to `CC/C=C\C/C=C\C/C=C\CCCCCCCC(=O)OC` [linolenic acid methyl ester], the “% Inhibition of [^3 H]4-MA binding” value in assay [1] (Table 1, 200 μM, 200 µM) is listed as 32%.

On to Phosphatidylcholine, for which the “inhibitory activity in [^3 H]4-MA binding assay” value in assay [1] is “slightly stimulatory”.

`CC1=C(/C=C/C(C)=C/C=C/C(C)=C\C(=O)O)C(C)(C)CCC1` [13-cis-retinoic acid]: in assay [1], the “inhibitory activity in [^3 H]4-MA binding assay” value is on record as “slightly stimulatory” and the “stimulation or inhibition” value is listed as “no stimulation or inhibition”. The activation at 200 µM in assay [2] was found to be 58%.

Consider `CCCCC[C@H](O)/C=C/C1=C(CCCCCCC(=O)O)C(=O)CC1` [prostaglandin B1], for which the “inhibitory activity in [^3 H]4-MA binding assay” value in assay [1] (0.2 mM) is “somewhat active”.

`CCCCCCCC/C=C\CCCCCCCC(=O)OCC(O)COC(=O)CCCCCCC/C=C\CCCCCCCC` [3-diolein]: the “inhibitory activity in [^3 H]4-MA binding assay” value in assay [1] is listed as “slightly stimulatory”.

Turning to `CCCCC[C@H](O)/C=C/C1=C(C/C=C\CCCC(=O)O)C(=O)CC1` [prostaglandin B2], the “inhibitory activity in [^3 H]4-MA binding assay” value in assay [1] (0.2 mM) is listed as “somewhat active”.

`CCCCC/C=C\C/C=C\C/C=C\CCCCC(=O)OCC(O)CO` (centres unmarked) [Monoγ-Linolenin] showed an IC50 in assay [1] of 86 µM. The inhibition at 5 µM in assay [2] (setting [4]) was under 10%. In addition, in assay [2] (setting [5]), the inhibition at 10 µM is under 10%. For the same compound, in assay [2] (setting [6]), the inhibition at 40 µM was 35%. In addition, the inhibition at 200 µM in assay [2] (setting [7]) turned out to be 87%.

Take `O=c1c(O)c(-c2ccc(O)c(O)c2)oc2cc(O)cc(O)c12` [quercetin, reference compound]: in assay [3], the “inhibitory activity” value is “inactive”.

Take `CCCCC[C@H](O)/C=C/[C@H]1C=CC(=O)[C@@H]1C/C=C\CCCC(=O)O` [prostaglandin A2]: the “inhibitory activity in [^3 H]4-MA binding assay” value in assay [1] (0.2 mM) is given as “somewhat active”.

For the compound `CCCCC[C@H](O)/C=C/[C@H]1C=CC(=O)[C@@H]1CCCCCCC(=O)O` [prostaglandin A1], the “inhibitory activity in [^3 H]4-MA binding assay” value in assay [1] (0.2 mM) is recorded as “somewhat active”.

heneicosene nitrile showed an IC50 in assay [1] of over 200 µM.

On to `Oc1cc(O)c2c(c1)O[C@H](c1ccc(O)c(O)c1)[C@@H](O)C2` [(+)Catechin], for which, in assay [3] (Table 8, 5 μM), the inhibition at 5 µM is under 10%. The inhibition at 10 µM in assay [3] (Table 8, 10 μM) was under 10%. In assay [3] (Table 8, 20 μM), the inhibition at 20 µM is under 10%. Further, the inhibition at 40 µM in assay [3] (Table 8, 40 μM) is under 10%. In addition, the inhibition at 200 µM in assay [3] (Table 8, 200 μM) is under 10%.

Turning to `Cn1c(=O)c2c(ncn2C)n(C)c1=O` [Caffeine, reference compound], the “inhibitory activity” value in assay [3] is listed as “not active”.

Turning to `Oc1cc(O)c2c(c1)O[C@H](c1ccc(O)c(O)c1)[C@@H](O)C2` (relative stereo) [(±)Catechin], in assay [3] (Table 8, 5 μM), the inhibition at 5 µM was under 10%. For the same compound, the inhibition at 10 µM in assay [3] (Table 8, 10 μM) is under 10%. The inhibition at 20 µM in assay [3] (Table 8, 20 μM) is under 10%. Also, the inhibition at 40 µM in assay [3] (Table 8, 40 μM) is under 10%. For the same compound, in assay [3] (Table 8, 200 μM), the inhibition at 200 µM was under 10%.

On to `CCCCC[C@H](O)/C=C/[C@@H]1[C@H]2C/C(=C/CCCC(=O)O)O[C@H]2C[C@H]1O` [Prostaglandin 12], for which, in assay [1], the “inhibitory activity in [^3 H]4-MA binding assay” value is given as “not active”.

Compound di-γ-linolenin came in with a half-inhibitory concentration (IC50) in assay [1] of over 200 µM. Also, the “% Inhibition of [^3 H]4-MA binding” value in assay [1] (Table 2, 10 μM) is reported as “NA (less than 10% inhibition were considered not active (NA))”; in assay [1] (Table 2, 40 μM) it was “NA (less than 10% inhibition were considered not active (NA))”; in assay [1] (Table 2, 200 μM), “NA (less than 10% inhibition were considered not active (NA))”.

Turning to carotenes, the “inhibitory activity in [^3 H]4-MA binding assay” value in assay [1] is “inactive”.

phosphatidyl ethanolamine: the “inhibitory activity in [^3 H]4-MA binding assay” value in assay [1] was “slightly stimulatory”.

Consider `CC1=C(/C=C/C(C)=C/C=C/C(C)=C/C=O)C(C)(C)CCC1` [retinal], for which the “stimulation or inhibition” value in assay [1] is on record as “no stimulation or inhibition”. Besides, the activation at 200 µM in assay [2] was determined as 58%.

As for `CCCCC[C@H](O)/C=C/[C@H]1C(=O)C[C@H](O)[C@@H]1C/C=C\CCCC(=O)O` [prostaglandin D2], in assay [1] (0.2 mM), the “inhibitory activity in [^3 H]4-MA binding assay” value was “somewhat active”.

On to `CC1=C(/C=C/C(C)=C/C=C/C(C)=C/C(=O)O)C(C)(C)CCC1` [retinoic acid], for which, in assay [1], the “inhibitory activity in [^3 H]4-MA binding assay” value was “inactive”.

On to `CCCCC[C@H](O)/C=C/[C@@H]1[C@@H](CCCCCCC(=O)O)[C@@H](O)C[C@H]1O` [prostaglandin F1a], for which the “inhibitory activity in [^3 H]4-MA binding assay” value in assay [1] (0.2 mM) is on record as “somewhat active”.

With `CC/C=C\C/C=C\C/C=C\C/C=C\C/C=C\C/C=C\CCC(=O)O` [Docosahexaenoic acid, cis-4,7,10,13,16,19-docosahexaenoic acid], the “inhibitory activity in [^3 H]4-MA binding assay” value in assay [1] was “potent inhibitor”. Further, the IC50 in assay [2] turned out to be 47 µM. Also, the inhibition at 10 µM in assay [2] (read-out: % Inhibition of [^3 H]4-MA binding, Table 1, 10 μM) is under 10%; in assay [2] (setting [5]) it was 18%. For the same compound, the inhibition at 40 µM was determined as 27 ± 1% in assay [2] (read-out: % Inhibition of [^3 H]4-MA binding, Table 1, 40 μM) and 49% in assay [2] (setting [6]). In addition, the inhibition at 200 µM in assay [2] (read-out: % Inhibition of [^3 H]4-MA binding, Table 1, 200 μM) worked out at 87 ± 6%; in assay [2] (setting [7]), 86%. For the same compound, the inhibition at 5 µM in assay [2] (setting [4]) is under 10%.

Take `CCCC/C=C\CCCCCCCC(=O)O` [Myristoleic acid]: the “% Inhibition of [^3 H]4-MA binding” value in assay [1] (Table 2, 10 μM) is “NA (less than 10% inhibition were considered not active (NA))”. Besides, in assay [2] (setting [8]), the inhibition at 5 µM was under 10%, the inhibition at 10 µM was under 10%, the inhibition at 40 µM was determined as 25 ± 4% and the inhibition at 200 µM was 43 ± 1%.

For the compound `O=C(O[C@H]1Cc2c(O)cc(O)cc2O[C@@H]1c1ccc(O)c(O)c1)c1cc(O)c(O)c(O)c1` [CG, (-)Catechin-3-gallate], in assay [3], the inhibition at 5 µM came out at 12%, the inhibition at 10 µM stood at 31%, the inhibition at 20 µM was 53% and the inhibition at 40 µM turned out to be 73%. The inhibition at 200 µM in assay [3] turned out to be 91%. For the same compound, in assay [3] (type 1 5α-reductase of rat liver microsomes, read-out: IC50), the concentration for half-maximal inhibition (IC50) was determined as 18 µM.

These data come from patent US5605929A, “Methods and compositions for inhibiting 5α-reductase activity” (priority 1995, dated 1997).
